In ChEMBL document CHEMBL4814056, “Discovery of chalcone analogues as novel NLRP3 inflammasome inhibitors with potent anti-inflammation activities” (Eur J Med Chem, 2021):

Experiments:
[1] = molecular target: T1, NACHT, LRR and PYD domains-containing protein 3 (Mus musculus, UniProt Q8R4B8); experiment: Inhibition of NLRP3 in mouse J774A.1 cells infected with FLA-ST assessed as inhibition of LPS- induced IL-1beta production by ELISA; format: cell-based, J774.A1
[2] = Stability assessed as glutathione reactivity of compound incubated for 24 hrs; format: physicochemical
[3] = Selectivity index, ratio of TC50 for cytotoxicity against human HEK293T cells to IC50 for inhibition of NLRP3 in mouse J774A.1 cells
[4] = Cytotoxicity against human HEK293T cells assessed as reduction in cell viability at 24 hrs by CCK8 assay; format: cell-based, HEK-293T; conditions: read-out: TD50
[5] = molecular target: T1, NACHT, LRR and PYD domains-containing protein 3; experiment: Inhibition of NLRP3 inflammasome activation in LPS/nigericin-treated mouse BMDM cells assessed as inhibition of LPS and nigericin-induced IL-1beta production pre-treated for 1 hr measured after 1 hr of stimulation by ELISA; format: cell-based
[6] = Solubility of compound; format: physicochemical

T1 sequence (Q8R4B8 whole entry, the tested form may be a part): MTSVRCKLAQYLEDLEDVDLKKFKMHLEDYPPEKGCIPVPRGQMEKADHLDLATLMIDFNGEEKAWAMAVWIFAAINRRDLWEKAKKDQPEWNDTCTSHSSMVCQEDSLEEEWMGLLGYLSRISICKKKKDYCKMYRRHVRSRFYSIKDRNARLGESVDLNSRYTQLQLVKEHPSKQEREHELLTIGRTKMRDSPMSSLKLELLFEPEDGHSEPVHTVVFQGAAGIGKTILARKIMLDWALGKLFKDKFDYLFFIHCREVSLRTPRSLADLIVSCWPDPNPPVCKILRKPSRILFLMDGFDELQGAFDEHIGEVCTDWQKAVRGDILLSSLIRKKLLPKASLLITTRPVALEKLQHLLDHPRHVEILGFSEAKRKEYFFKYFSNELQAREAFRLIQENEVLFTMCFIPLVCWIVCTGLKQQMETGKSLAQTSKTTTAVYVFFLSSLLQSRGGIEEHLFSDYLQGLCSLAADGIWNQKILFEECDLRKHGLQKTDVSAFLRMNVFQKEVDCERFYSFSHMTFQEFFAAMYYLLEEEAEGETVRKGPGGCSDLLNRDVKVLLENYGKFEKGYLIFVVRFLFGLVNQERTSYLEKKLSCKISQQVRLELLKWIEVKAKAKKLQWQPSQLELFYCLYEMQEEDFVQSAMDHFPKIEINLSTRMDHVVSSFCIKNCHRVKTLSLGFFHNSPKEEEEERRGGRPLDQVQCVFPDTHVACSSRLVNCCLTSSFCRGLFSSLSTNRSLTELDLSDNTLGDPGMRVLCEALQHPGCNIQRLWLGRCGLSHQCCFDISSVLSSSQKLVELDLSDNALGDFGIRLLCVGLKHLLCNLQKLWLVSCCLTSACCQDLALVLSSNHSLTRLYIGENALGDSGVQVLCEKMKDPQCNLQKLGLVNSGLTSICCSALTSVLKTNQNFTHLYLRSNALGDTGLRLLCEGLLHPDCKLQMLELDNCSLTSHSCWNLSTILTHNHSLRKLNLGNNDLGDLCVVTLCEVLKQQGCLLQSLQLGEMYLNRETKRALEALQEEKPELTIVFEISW

SMILES | IC50 [1] [µM] | further results
CSc1ccc(C(=O)/C=C/c2c(C)cc(O)cc2C)cc1 | > 40 | 
CSc1ccc(C(=O)/C=C/c2ccc(O)cc2F)cc1 | 12.7 | 
CCC(Oc1c(C)cc(/C=C/C(=O)c2ccc(SC)cc2)cc1C)C(=O)O (stereo not given) | 31.7 | 
Cc1ccc(-c2ccc(C(=O)/C=C/c3cc(C)c(O)c(C)c3)cc2)s1 | > 40 | 
CSc1ccc(C(=O)/C=C/c2cc(C)c(OCCCCC(=O)O)c(C)c2)cc1 | 28.9 | 
COc1c(C)cc(/C=C/C(=O)c2ccc(N(C)C)cc2)cc1C | 25.9 | 
Cc1cc(/C=C/C(=O)c2ccc(I)cc2)cc(C)c1O | 28.6 | 
CSc1ccc(C(=O)/C=C/c2ccc(O)cc2)cc1 | 14.6 | 
COc1cc(/C=C/C(=O)c2ccc(SC)cc2)cc(OC)c1O | > 40 | 
CSc1ccc(C(=O)/C=C/c2cc(C)c(OCCCN3CCOCC3)c(C)c2)cc1 | 21.9 | 
Cc1cc(/C=C/C(=O)c2ccc(F)cc2)cc(C)c1O | 12.3 | 
O=C(O)c1ccc(/C=C2\SC(=S)N(Cc3cccc(C(F)(F)F)c3)C2=O)cc1 |  | IC50 [5]: 1 µM
COc1c(C)cc(/C=C/C(=O)c2ccc(NC(=O)NC(C)C)cc2)cc1C | 33.2 | 

The remaining compounds from weak to strong by IC50 [1], led by results:

IC50 [1] [µM] | SMILES | further results
11.7 | CCc1cc(/C=C/C(=O)c2ccc(SC)cc2)cc(CC)c1O | 
10.7 | CSc1ccc(C(=O)/C=C/c2ccc(O)c(F)c2)cc1 | 
10.6 | Cc1cc(/C=C/C(=O)c2ccc([S+](C)[O-])cc2)cc(C)c1O (stereo not given) | 
10 | COc1cc(/C=C/C(=O)c2ccc(SC)cc2)ccc1O | 
8.8 | CSc1ccc(C(=O)/C=C/c2ccc(O)c(C)c2)cc1 | 
3.9 | Cc1cc(/C=C/C(=O)c2ccc(Cl)cc2)cc(C)c1O | 
2.1 | CSc1ccc(C(=O)/C=C/c2cc(C)c(O)c(C)c2)cc1 | Stabilty [2]: Stable; Selectivity Index [3]: 41; CC50 at 24 h [4]: 86.2 µM
1.6 | CSc1ccc(C(=O)/C=C/c2ccc(O)c(O)c2)cc1 | solubility [6]: Insoluble
